Data from patent US20230348426A1, “OXOPYRROLIDINE FPR2 AGONISTS” (Bristol-Myers Squibb Company, priority 2020, published 2023).

What was measured:
human FPR1 = human FPR1 (Homo sapiens (Human), UniProt P21462); test: FPR1 cyclic adenosine monophosphate (cAMP) assay; type: cell-based; settings: CHO cells overexpressing human FPR1; forskolin 10 µM; inhibition of cAMP production; read-out: hFPR1 cAMP EC50
Method in brief: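 CHO cells overexpressing human FPR1 (4,000 cells/well) stimulated with 10 µM forskolin plus 200 µM IBMX in the presence of compound (0.020 nM–100 µM, 1% DMSO), 30 min at room temperature. Intracellular cAMP measured by HTRF. Inhibition of cAMP production fitted to a 4-parameter logistic equation.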

human FPR2 = human FPR2 (Homo sapiens (Human), UniProt P25090); test: FPR2 cyclic adenosine monophosphate (cAMP) assay; type: cell-based; settings: CHO cells overexpressing human FPR2; forskolin 5 µM; inhibition of cAMP production; read-out: hFPR2 cAMP2 EC50
Method in brief: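 CHO cells overexpressing human FPR2 (2,000/well) incubated 30 min at room temperature with compound (0.020 nM–100 µM, 1% DMSO), 5 µM forskolin and 200 µM IBMX.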

Chain of human FPR2 (P25090 whole entry): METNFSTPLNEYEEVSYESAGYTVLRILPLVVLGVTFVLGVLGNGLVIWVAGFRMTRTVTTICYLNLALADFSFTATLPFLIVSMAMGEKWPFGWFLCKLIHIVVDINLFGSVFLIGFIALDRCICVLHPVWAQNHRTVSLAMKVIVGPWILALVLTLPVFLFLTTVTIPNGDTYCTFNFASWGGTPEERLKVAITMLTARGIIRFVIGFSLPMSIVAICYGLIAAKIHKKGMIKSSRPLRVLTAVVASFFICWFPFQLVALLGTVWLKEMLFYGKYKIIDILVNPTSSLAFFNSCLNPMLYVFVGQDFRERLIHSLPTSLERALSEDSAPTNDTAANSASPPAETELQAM
Chain of human FPR1 (P21462 whole entry): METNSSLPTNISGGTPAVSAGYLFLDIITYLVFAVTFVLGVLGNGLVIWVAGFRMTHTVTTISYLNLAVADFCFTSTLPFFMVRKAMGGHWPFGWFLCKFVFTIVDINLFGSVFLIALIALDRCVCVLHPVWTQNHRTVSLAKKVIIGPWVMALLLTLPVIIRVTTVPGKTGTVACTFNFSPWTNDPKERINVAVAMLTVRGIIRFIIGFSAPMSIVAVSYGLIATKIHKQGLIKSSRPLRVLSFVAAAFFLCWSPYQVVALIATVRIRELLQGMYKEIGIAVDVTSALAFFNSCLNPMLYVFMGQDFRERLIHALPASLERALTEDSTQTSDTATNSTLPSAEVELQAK

SMILES	EC50 (human FPR1)	EC50 (human FPR2)
COc1cc(F)c([C@@H]2CN(c3cccnc3OC3CCOC3)C(=O)[C@H]2NC(=O)c2ccc(OC(F)(F)F)cc2)c(F)c1 (some centres unmarked) [Example 235]	84 nM	6.5 nM
O=C(N[C@@H]1C(=O)N(c2cccn(CC(F)F)c2=O)C[C@H]1c1ccc(Cl)cc1)c1ccc(OC(F)F)cc1 [Example 236]	30 nM	6.5 nM
COc1cc(F)c([C@@H]2CN(c3cc(C(F)(F)F)cn(C)c3=O)C(=O)[C@H]2NC(=O)c2ccc(Cl)cc2)c(F)c1 [Example 238]	1500 nM	6.6 nM
COc1cc(F)c([C@@H]2CN(c3nccc(NCC(C)(C)O)c3C(F)(F)F)C(=O)[C@H]2NC(=O)c2ccc(OC(F)F)cc2)c(F)c1 [Example 239]	650 nM	6.6 nM
COc1cc(F)c([C@@H]2CN(c3ccc(CO)[nH]c3=O)C(=O)[C@H]2NC(=O)c2ccc(OC(F)(F)F)cc2)c(F)c1 [Example 240]	130 nM	6.6 nM
COc1cc(F)c([C@@H]2CN(c3cccn(CCC(F)(F)F)c3=O)C(=O)[C@H]2NC(=O)c2ccc(OC(F)F)cc2)c(F)c1 [Example 241]	38 nM	6.6 nM
CCn1cccc(N2C(=O)[C@@H](NC(=O)c3ccc(OC(F)(F)F)cc3)[C@H](c3c(F)cc(OC)cc3F)[C@H]2C)c1=O [Example 242]	110 nM	6.7 nM
COc1cc(F)c([C@@H]2CN(c3ccc(CO)n(C)c3=O)C(=O)[C@H]2NC(=O)c2ccc(OC(F)F)cc2)c(F)c1 [Example 243]	170 nM	6.7 nM
COc1cc(F)c([C@@H]2CN(c3cc(C)cn(C)c3=O)C(=O)[C@H]2NC(=O)c2ccc(OC(F)F)cc2)c(F)c1 [Example 244]	950 nM	6.8 nM
COCC(C(=O)N(C)C)n1cccc(N2C[C@@H](c3ccc(Cl)cc3)[C@H](NC(=O)c3ccc(OC(F)(F)F)cc3)C2=O)c1=O (some centres unmarked) [Example 245]	1.1 nM	6.8 nM
COc1cc(F)c([C@@H]2CN(c3nc(N4C(=O)CC[C@H]4CO)ccc3F)C(=O)[C@H]2NC(=O)c2ccc(OC(F)(F)F)cc2)c(F)c1 [Example 246]	280 nM	6.9 nM
COc1cc(F)c([C@@H]2CN(c3nc(C)ccc3C(F)(F)F)C(=O)[C@H]2NC(=O)c2ccc(OC(F)F)cc2)c(F)c1 [Example 247]	250 nM	6.9 nM
COCC(C(=O)N(C)C)n1ccc(C)c(N2C[C@@H](c3c(F)cc(OC)cc3F)[C@H](NC(=O)c3ccc(OC(F)(F)F)cc3)C2=O)c1=O (some centres unmarked) [Example 248]	0.7 nM	6.9 nM
CCn1cccc(N2C[C@@H](c3ccc(OC)cc3F)[C@H](NC(=O)c3ccc(OC(F)(F)F)cc3)C2=O)c1=O [Example 249]	13 nM	6.9 nM
COc1cc(F)c([C@@H]2CN(c3nccc(N4CCN(C)CC4)c3C(F)(F)F)C(=O)[C@H]2NC(=O)c2ccc(Cl)cc2)c(F)c1 [Example 250]	4800 nM	6.9 nM
COc1cc(F)c([C@@H]2CN(c3c(C#N)ccn(C)c3=O)C(=O)[C@H]2NC(=O)c2ccc(Cl)cc2)c(F)c1 [Example 251]	> 5000 nM	7 nM
COCC(CO)n1cccc(N2C[C@@H](c3ccc(OC)cc3)[C@H](NC(=O)c3ccc(OC(F)F)cc3)C2=O)c1=O (some centres unmarked) [Example 252]	44 nM	7 nM
COc1cc(F)c([C@@H]2CN(c3cccn(CC(C)OC)c3=O)C(=O)[C@H]2NC(=O)c2ccc(OC(F)F)cc2)c(F)c1 (some centres unmarked) [Example 253]	11 nM	7 nM
COc1cc(F)c([C@@H]2CN(c3cccn(CC(C)(CO)CO)c3=O)C(=O)[C@H]2NC(=O)c2ccc(OC(F)(F)F)cc2)c(F)c1 [Example 254]	52 nM	7 nM
CCn1cccc(N2C(=O)[C@@H](NC(=O)c3ccc(OC(F)F)cc3)[C@H](c3c(F)cc(OC)cc3F)[C@H]2C)c1=O [Example 255]	52 nM	7 nM
COc1cc(F)c([C@@H]2CN(c3nc(N4C[C@H]5C[C@@H]4CO5)ccc3F)C(=O)[C@H]2NC(=O)c2ccc(OC(F)F)cc2)c(F)c1 [Example 256]	530 nM	7.2 nM
COCC(C(=O)N(C)C)n1ccc(C)c(N2C[C@@H](c3c(F)cc(OC)cc3F)[C@H](NC(=O)c3ccc(OC(F)F)cc3)C2=O)c1=O (some centres unmarked) [Example 257]	1.6 nM	7.3 nM
COc1cc(F)c([C@@H]2CN(c3cccn(CCF)c3=O)C(=O)[C@H]2NC(=O)c2ccc(OC(F)F)cc2)c(F)c1 [Example 258]	83 nM	7.4 nM
COc1cc(F)c([C@@H]2CN(c3nc(N4C[C@@H]5C[C@H]4CN5C)ccc3OC)C(=O)[C@H]2NC(=O)c2ccc(Cl)cc2)c(F)c1 [Example 259]	580 nM	7.4 nM
COCCn1ccc(C)c(N2C[C@@H](c3ccc(OC)cc3)[C@H](NC(=O)c3ccc(OC(F)F)cc3)C2=O)c1=O [Example 260]	1.2 nM	7.5 nM

SMILES	EC50 (human FPR1)	EC50 (human FPR2)
CNc1ccnc(N2C[C@@H](c3c(F)cc(OC)cc3F)[C@H](NC(=O)c3ccc(OC(F)F)cc3)C2=O)c1C(F)(F)F [Example 261]	940 nM	7.5 nM
COc1cc(F)c([C@@H]2CN(c3c(C)ccn(CCO)c3=O)C(=O)[C@H]2NC(=O)c2ccc(OC(F)F)cc2)c(F)c1 [Example 262]	18 nM	7.5 nM
COc1cc(F)c([C@@H]2CN(c3nccc(NC4CCOC4)c3C(F)(F)F)C(=O)[C@H]2NC(=O)c2ccc(Cl)cc2)c(F)c1 (some centres unmarked) [Example 263]	1300 nM	7.5 nM
COc1ccc([C@@H]2CN(c3c(C)ccn(C4CCOC4)c3=O)C(=O)[C@H]2NC(=O)c2ccc(OC(F)F)cc2)cc1 (some centres unmarked) [Example 265]	1.5 nM	7.6 nM
COc1cc(F)c([C@@H]2CN(c3nc(N4C(=O)CC[C@H]4CO)ccc3F)C(=O)[C@H]2NC(=O)c2ccc(OC(F)F)cc2)c(F)c1 [Example 266]	410 nM	7.6 nM
COc1cc(F)c([C@@H]2CN(c3cc(F)cc(C(C)(C)O)c3)C(=O)[C@H]2NC(=O)c2ccc(Cl)cc2)c(F)c1 [Example 267]	1600 nM	7.7 nM
COCCn1cc(F)cc(N2C[C@@H](c3c(F)cc(OC)cc3F)[C@H](NC(=O)c3ccc(OC(F)F)cc3)C2=O)c1=O [Example 268]	140 nM	7.7 nM
COc1cc(F)c([C@@H]2CN(c3cccn(CC4CC(F)(F)C4)c3=O)C(=O)[C@H]2NC(=O)c2ccc(OC(F)(F)F)cc2)c(F)c1 [Example 269]	27 nM	7.7 nM
COc1cc(F)c([C@@H]2CN(c3nc(C4CCNCC4)ccc3C(F)(F)F)C(=O)[C@H]2NC(=O)c2ccc(OC(F)F)cc2)c(F)c1 [Example 270]	180 nM	7.8 nM
COc1cc(F)c([C@@H]2CN(c3nc(NC4CCOC4)ccc3F)C(=O)[C@H]2NC(=O)c2ccc(OC(F)F)cc2)c(F)c1 (some centres unmarked) [Example 271]	1400 nM	7.8 nM
COc1cc(F)c([C@@H]2CN(c3cccn(CC4CC4)c3=O)C(=O)[C@H]2NC(=O)c2ccc(OC(F)(F)F)cc2)c(F)c1 [Example 272]	14 nM	7.8 nM
COc1cc(F)c([C@@H]2CN(c3cccn(CCO)c3=O)C(=O)[C@H]2NC(=O)c2ccc(C)cc2)c(F)c1 [Example 273]	1400 nM	7.8 nM
CNC(=O)C(C)Nc1ccnc(N2C[C@@H](c3c(F)cc(OC)cc3F)[C@H](NC(=O)c3ccc(Cl)cc3)C2=O)c1C(F)(F)F (some centres unmarked) [Example 275]	6100 nM	8 nM
COCCn1cccc(N2C[C@@H](c3ccc(OC)cc3)[C@H](NC(=O)c3ccc(OC(F)F)cc3)C2=O)c1=O [Example 276]	13 nM	8 nM
COCCn1cccc(N2C[C@@H](c3c(F)cc(OC)cc3F)[C@H](NC(=O)c3ccc(C(F)(F)F)cc3)C2=O)c1=O [Example 277]	210 nM	8 nM
COc1cc(F)c([C@@H]2CN(c3cccn(CCN4CCOCC4)c3=O)C(=O)[C@H]2NC(=O)c2ccc(OC(F)(F)F)cc2)c(F)c1 [Example 278]	340 nM	8.1 nM
COc1cc(F)c([C@@H]2CN(c3nccc(N4CCN(C)CC4)c3C(F)(F)F)C(=O)[C@H]2NC(=O)c2ccc(OC(F)F)cc2)c(F)c1 [Example 279]	5800 nM	8.1 nM
COc1cc(F)c([C@@H]2CN(c3nc(N4CCCC4=O)ccc3F)C(=O)[C@H]2NC(=O)c2ccc(OC(F)F)cc2)c(F)c1 [Example 280]	26 nM	8.2 nM
COc1cc(F)c([C@@H]2CN(c3nccc(NCC(=O)NC4CC4)c3C(F)(F)F)C(=O)[C@H]2NC(=O)c2ccc(Cl)cc2)c(F)c1 [Example 281]	560 nM	8.2 nM
COc1cc(F)c([C@@H]2CN(c3nccc(N4CCN(S(C)(=O)=O)CC4)c3C(F)(F)F)C(=O)[C@H]2NC(=O)c2ccc(OC(F)F)cc2)c(F)c1 [Example 282]	700 nM	8.3 nM
COCC(C(=O)N(C)C)n1cccc(N2C[C@@H](c3c(F)cc(OC)cc3F)[C@H](NC(=O)c3ccc(OC(F)(F)F)cc3)C2=O)c1=O (some centres unmarked) [Example 283]	19 nM	8.4 nM
COc1cc(F)c([C@@H]2CN(c3nc(N4C[C@@H](C)N(C)[C@@H](C)C4)ccc3OC)C(=O)[C@H]2NC(=O)c2ccc(Cl)cc2)c(F)c1 [Example 284]	580 nM	8.4 nM
COc1cc(N2C[C@@H](c3c(F)cc(OC)cc3F)[C@H](NC(=O)c3ccc(OC(F)F)cc3)C2=O)nc(N2C[C@@H]3C[C@H]2CN3C)c1 [Example 285]	220 nM	2.9 nM
COc1cc(F)c([C@@H]2CN(c3c(Cl)ccn(C)c3=O)C(=O)[C@H]2NC(=O)c2ccc(OC(F)F)cc2)c(F)c1 [Example 286]	130 nM	8.5 nM
